Test results: patent US9073858B2, “Methods of targeted drug development” (priority 2010, dated 2015)
Like-named read-outs stand apart in the source and are kept apart here.

What was measured:
[1] = tested on: epithelial carcinoma A431 cell line; assay: MTT Cell Proliferation Assay, A431 cell line; type: cell-based; details: for IC50: Homo sapiens
Procedure, shortened: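 Cells plated overnight, then exposed 3 days at 37 °C, 5% CO2 to compound in growth medium with 0.5% FBS and 0.5% DMSO final (0.5% DMSO as control).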

annexin V in A549 cells = details: for % Total Apoptosis: cells in early- and late-stage apoptosis; for % Relative to Reference Cpd.: reference 4.0 μM camptothecin or 1.0 μM staurosporin
Text: Assays that measure apoptosis are utilized to determine whether or not compounds can induce programmed cell death in cancer cells. Annexin V is a protein that is used to detect apoptosis by binding to phosphatidylserine expressed on membranes of dead or dying cells. Fluorescently tagged with FITC, it can he used in conjunction with 7-aminoactinomycin D to determine the percentage of cells undergoing apoptosis via flow cytometry. Cells in early apoptosis will emit an FITC signal which will eventually be replaced by the far red 7-AAD signal that is associated with cell membrane permeability due to necrosis.
In brief, for the Annexin V Assay, compounds were added to cells plated in 6-well plates. Treated cells were incubated for up to 30 hours before addition of fluorescent cell marker probes that detect the presence of annexin V. The percentage of cells undergoing apoptosis and necrosis were determined by flow cytometry.
On day 2, working solutions of compounds (at 1000×) were prepared. To 2.0 ml media/well was added 2 μl 1000× compound diluted in 100% DMSO for final DMSO concentration of 0.1%. On day 3, plates were incubated for 30 hrs. […] Cells were collected by centrifugation at 300×g for 5 min.
Resuspended cells were stored at 4° C. in the dark, until flow cytometry analysis.
For flow cytometry analysis of the Annexin V Assay, sample acquisition was on the BD LSR II manufactured by BD Biosciences, San Jose, Calif. […] 10,000 events werer collected based on a stopping gate of forward scatter vs side scatter light. Acquisition was done through BD FACS DiVa software version 6.1.1 on high flow rate (60 μL/min). Calculations were as follows: Quadrant 3=lower left=live cells; Quadrant 4=lower right=early apoptosis; Quadrant 2=upper right=late apoptosis; Quadrant 1=upper left=dead cells. Percent (%)Total apoptosis was calculated as early (quadrant 4)+late (quadrant 2). Percent (%) ratio apoptosis was calculated as (experimental-No treatment/positive control)*100. All statistical analyses are done using GraphPad Prism or Microsoft Excel.

Oc1c(C(Nc2ccccn2)c2ccc(C(F)(F)F)cc2)ccc2cccnc12 (stereo not drawn) [compound 10460]
MTT (10 Point follow-up) ratio ([1]; 10 point follow-up, value in brackets, numerically MDBK over A431): 1.34
MTT-72 h A431/MDBK (ratio) ([1]; 72 h, value in brackets, numerically MDBK value over A431 value): 1.84
IC50 ([1]; A-431, 10 point follow-up, first value of pair, read-out: MTT (10 Point follow-up) A431): 279 nM
IC50 ([1]; A-431, 72 h, 72 h, first value of A431/MDBK pair, read-out: MTT-72 h A431): 290 nM

Cc1c(Cl)cnc(NC(c2cccc(Cl)c2Cl)c2ccc3cccnc3c2O)c1F (stereo not drawn) [AD4-13192]
% Total Apoptosis (annexin V in A549 cells; 1 μM, A549 cells): 29%
% Total Apoptosis (annexin V in A549 cells; 10 μM, A549 cells): 30%

Cc1cc(Cl)cnc1NC(c1ccc(Cl)cc1Cl)c1ccc2cccnc2c1O (stereo not drawn) [AD4-13130]
apoptosis, share of the cell population (annexin V in A549 cells; 1 μM, A549 cells, FIG. 16B): greater than 50%
% Total Apoptosis (annexin V in A549 cells; 1 μM, A549 cells): 32%
% Relative to Reference Cpd. (annexin V in A549 cells; 1 μM): 178%
late apoptosis, share of the cell population (annexin V in A549 cells; 10 μM, A549 cells, FIG. 16B): up to 20%
% Total Apoptosis (annexin V in A549 cells; 10 μM, A549 cells): 38%
% Relative to Reference Cpd. (annexin V in A549 cells; 10 μM): 166%
